We go through 22 molecules from ChEMBL document CHEMBL2086385, “Synthesis and antimicrobial evaluation of L-phenylalanine-derived C5-substituted rhodanine and chalcone derivatives containing thiobarbituric acid or 2-thioxo-4-thiazolidinone” (2012).

Molecules are shown by their SMILES. ≈ marks a conversion by molar mass, not a printed value. Some results are limits rather than exact numbers.

Common to all, as to type: functional
Assay [1] relates to Staphylococcus aureus. The assay can be described thus: Antibacterial activity against methicillin-resistant Staphylococcus aureus CCARM 3506 clinical isolate after 24 hrs by broth microdilution method. Particulars: CCARM 3506, 24 h. Background: Broth dilution looks for growth in wells or tubes with falling amounts of substance.
Assay [2] has as its system Staphylococcus aureus. The assay can be described thus: Ratio of norfloxacin MIC to compound MIC for quinolone-resistant Staphylococcus aureus CCARM 3505 clinical isolate.
In assay [3] the test system is Staphylococcus aureus. The assay can be described thus: Antibacterial activity against Staphylococcus aureus RN4220 after 24 hrs by broth microdilution method. As to conditions: RN4220, 24 h.
Assay [4] has as its system Staphylococcus aureus. The assay is described as follows: Ratio of norfloxacin MIC to compound MIC for methicillin-resistant Staphylococcus aureus CCARM 3167 clinical isolate.
The subject of assay [5] is Staphylococcus aureus. The assay is described as follows: Ratio of norfloxacin MIC to compound MIC for quinolone-resistant Staphylococcus aureus CCARM 3519 clinical isolate.
The subject of assay [6] is Staphylococcus aureus. The assay can be described thus: Antibacterial activity against methicillin-resistant Staphylococcus aureus CCARM 3167 clinical isolate after 24 hrs by broth microdilution method. As to conditions: CCARM 3167, 24 h.
In assay [7] the test system is Staphylococcus aureus. The assay can be described thus: Ratio of norfloxacin MIC to compound MIC for methicillin-resistant Staphylococcus aureus CCARM 3506 clinical isolate.
Assay [8] concerns Staphylococcus aureus. The assay can be described thus: Antibacterial activity against Staphylococcus aureus KCTC 209 after 24 hrs by broth microdilution method. Particulars: KCTC 209, 24 h.
The subject of assay [9] is Staphylococcus aureus. The assay can be described thus: Antibacterial activity against quinolone-resistant Staphylococcus aureus CCARM 3505 clinical isolate after 24 hrs by broth microdilution method. As to conditions: CCARM 3505, 24 h.
For assay [10], the system named is Escherichia coli. The assay can be described thus: Antibacterial activity against Escherichia coli CCARM 1356 after 24 hrs by broth microdilution method. Particulars: CCARM 1356, 24 h.
The subject of assay [11] is Staphylococcus aureus. The assay can be described thus: Antibacterial activity against Staphylococcus aureus KCTC 503 after 24 hrs by broth microdilution method. Particulars: KCTC 503, 24 h.
Assay [12] relates to Staphylococcus aureus. The assay can be described thus: Antibacterial activity against quinolone-resistant Staphylococcus aureus CCARM 3519 clinical isolate after 24 hrs by broth microdilution method. As to conditions: CCARM 3519, 24 h.

As usually defined, the MIC is the lowest concentration that inhibits growth of the organism. A higher MIC goes with a need for much substance.

On to `O=C(/C=C/c1ccc(/C=C2\SC(=S)N([C@@H](Cc3ccccc3)C(=O)O)C2=O)cc1)c1ccccc1F`, for which the minimal inhibitory concentration (MIC) in assay [1] was 4 µg/mL (≈ 7.73 µM); in assay [3], 4 µg/mL (≈ 7.73 µM); in assay [6] it was 4 µg/mL (≈ 7.73 µM); in [8] it was 16 µg/mL (≈ 30.9 µM); in assay [9], 8 µg/mL (≈ 15.5 µM); in [10], above 64 µg/mL. Also, the MIC in assay [11] worked out at 16 µg/mL (≈ 30.9 µM); in [12] it was 8 µg/mL (≈ 15.5 µM). In addition, the Ratio in [2], in assay [4], in assay [5] and in [7] was 2 in each case.
For the molecule `O=C(/C=C/c1ccc(/C=C2\SC(=S)N([C@@H](Cc3ccccc3)C(=O)O)C2=O)cc1)c1ccc(F)cc1`, the MIC is 4 µg/mL (≈ 7.73 µM) in assay [1]; 4 µg/mL (≈ 7.73 µM) in [3]; 4 µg/mL (≈ 7.73 µM) in assay [6]; 16 µg/mL (≈ 30.9 µM) in assay [8]; 8 µg/mL (≈ 15.5 µM) in assay [9]; above 64 µg/mL in assay [10]. The MIC in assay [11] was found to be 16 µg/mL (≈ 30.9 µM); in assay [12] it was 8 µg/mL (≈ 15.5 µM). For the same molecule, the Ratio in assay [2], in assay [4], in assay [5] and in [7] was 2 throughout.
Consider `O=C(/C=C/c1ccc(/C=C2\SC(=S)N([C@@H](Cc3ccccc3)C(=O)O)C2=O)cc1)c1ccccc1Cl`, for which the MIC in assay [1] is 4 µg/mL (≈ 7.49 µM); in [3] it was 2 µg/mL (≈ 3.74 µM); in assay [6], 2 µg/mL (≈ 3.74 µM); in assay [8] it was 16 µg/mL (≈ 30 µM); in assay [9] it was 4 µg/mL (≈ 7.49 µM); in [10] it was above 64 µg/mL. The MIC in assay [11] is 16 µg/mL (≈ 30 µM); in assay [12] it was 4 µg/mL (≈ 7.49 µM). The Ratio in assay [2], in assay [4], in assay [5] and in assay [7] was 2 throughout.
As for `O=C(/C=C/c1ccc(/C=C2\SC(=S)N([C@@H](Cc3ccccc3)C(=O)O)C2=O)cc1)c1cccc(Cl)c1`, the MIC in assay [1] was 4 µg/mL (≈ 7.49 µM); in assay [3], 2 µg/mL (≈ 3.74 µM); in [6], 2 µg/mL (≈ 3.74 µM); in assay [8], 16 µg/mL (≈ 30 µM); in [9], 8 µg/mL (≈ 15 µM); in assay [10], above 64 µg/mL. Also, the MIC in assay [11] worked out at 16 µg/mL (≈ 30 µM); in [12], 8 µg/mL (≈ 15 µM). The Ratio in [2], in assay [4], in assay [5] and in assay [7] was 2 throughout.
On to `O=Cc1ccc(OCc2ccc(Cl)cc2)cc1`, for which the MIC in [1], in assay [3], in [6], in assay [8], in assay [9] and in assay [10] was above 64 µg/mL throughout. The MIC in [11] and in assay [12] was above 64 µg/mL each time.
For `O=Cc1ccc(OCc2ccc(Cl)cc2Cl)cc1`, the MIC in assay [1], in assay [3], in assay [6], in assay [8], in assay [9] and in assay [10] was above 64 µg/mL in each case. The MIC in assay [11] and in [12] was above 64 µg/mL throughout.
Consider `O=Cc1ccc(OCc2cccc(Br)c2)cc1`, for which the MIC in assay [1], in assay [3], in assay [6], in assay [8], in assay [9] and in assay [10] was above 64 µg/mL in each case. Moreover, the MIC in assay [11] and in [12] was above 64 µg/mL throughout.
As for `O=Cc1ccc(OCc2ccc(Br)cc2)cc1`, the MIC in assay [1], in assay [3], in assay [6], in assay [8], in assay [9] and in assay [10] was above 64 µg/mL each time. Moreover, the MIC in assay [11] and in [12] was above 64 µg/mL in each case.
For `Cc1ccc(COc2ccc(C=O)cc2)cc1`, the MIC in [1], in assay [3], in [6], in [8], in assay [9] and in assay [10] was above 64 µg/mL each time. The MIC in assay [11] and in [12] was above 64 µg/mL each time.
On to `O=C1NC(=S)NC(=O)C1=Cc1ccc(/C=C/C(=O)c2ccccc2F)cc1`, for which the minimal inhibitory concentration (MIC) in [1], in assay [3], in assay [6], in [8], in [9] and in [10] was above 64 µg/mL throughout. Also, the MIC in assay [11] and in assay [12] was above 64 µg/mL each time.
As for `O=C1NC(=S)NC(=O)C1=Cc1ccc(/C=C/C(=O)c2ccc(F)cc2)cc1`, the MIC in assay [1], in [3], in [6], in assay [8], in assay [9] and in [10] was above 64 µg/mL in each case. Moreover, the MIC in [11] and in assay [12] was above 64 µg/mL throughout.
With `O=C1NC(=S)NC(=O)C1=Cc1ccc(/C=C/C(=O)c2ccccc2Cl)cc1`, the MIC in assay [1], in assay [3], in assay [6], in [8], in [9] and in assay [10] was above 64 µg/mL throughout. For the same molecule, the minimal inhibitory concentration (MIC) in assay [11] and in assay [12] was above 64 µg/mL throughout.
As for `O=C1NC(=S)NC(=O)C1=Cc1ccc(/C=C/C(=O)c2cccc(Cl)c2)cc1`, the MIC in assay [1], in [3], in assay [6], in [8], in assay [9] and in assay [10] was above 64 µg/mL each time. The MIC in assay [11] and in assay [12] was above 64 µg/mL throughout.
On to `O=C1NC(=S)NC(=O)C1=Cc1ccc(/C=C/C(=O)c2ccc(Cl)cc2)cc1`, for which the minimum inhibitory concentration (MIC) in assay [1], in assay [3], in assay [6], in assay [8], in assay [9] and in [10] was above 64 µg/mL each time. Besides, the MIC in assay [11] and in assay [12] was above 64 µg/mL throughout.
Regarding `O=C1NC(=S)S/C1=C/c1ccc(/C=C/C(=O)c2ccccc2F)cc1`, the MIC in [1], in assay [3], in assay [6], in assay [8], in assay [9] and in assay [10] was above 64 µg/mL throughout. For the same molecule, the MIC in [11] and in assay [12] was above 64 µg/mL each time.
For `O=C1NC(=S)S/C1=C/c1ccc(/C=C/C(=O)c2ccc(F)cc2)cc1`, the MIC in [1], in [3], in assay [6], in [8], in assay [9] and in assay [10] was above 64 µg/mL throughout. The MIC in assay [11] and in assay [12] was above 64 µg/mL each time.
With `O=C1NC(=S)S/C1=C/c1ccc(/C=C/C(=O)c2ccccc2Cl)cc1`, the MIC in [1], in assay [3], in [6], in assay [8], in assay [9] and in assay [10] was above 64 µg/mL each time. Further, the MIC in assay [11] and in assay [12] was above 64 µg/mL each time.
`O=C1NC(=S)S/C1=C/c1ccc(/C=C/C(=O)c2cccc(Cl)c2)cc1`: the MIC in assay [1], in assay [3], in assay [6], in assay [8], in [9] and in assay [10] was above 64 µg/mL throughout. Also, the minimal inhibitory concentration (MIC) in assay [11] and in assay [12] was above 64 µg/mL throughout.
For `O=C1NC(=S)S/C1=C/c1ccc(/C=C/C(=O)c2ccc(Cl)cc2)cc1`, the minimum inhibitory concentration (MIC) in assay [1], in assay [3], in [6], in assay [8], in [9] and in [10] was above 64 µg/mL in each case. Also, the MIC in [11] and in assay [12] was above 64 µg/mL each time.
For `O=Cc1ccc(OCc2ccccc2)cc1`, the MIC in [1], in assay [3], in assay [6], in assay [8], in assay [9] and in [10] was above 64 µg/mL throughout. Besides, the MIC in assay [11] and in assay [12] was above 64 µg/mL each time.
Take `CCn1cc(C(=O)O)c(=O)c2cc(F)c(N3CCNCC3)cc21` [NORFLOXACIN]: the MIC is 4 µg/mL (≈ 12.5 µM) in assay [1]; 2 µg/mL (≈ 6.26 µM) in assay [3]; 8 µg/mL (≈ 25.1 µM) in assay [6]; 4 µg/mL (≈ 12.5 µM) in assay [8]; above 64 µg/mL in assay [9]; 16 µg/mL (≈ 50.1 µM) in [10]. In addition, the MIC is 2 µg/mL (≈ 6.26 µM) in assay [11] and above 64 µg/mL in assay [12].
`Cc1onc(-c2ccccc2)c1C(=O)N[C@@H]1C(=O)N2[C@@H]1SC(C)(C)[C@@H]2C(=O)O` [OXACILLIN]: the minimum inhibitory concentration (MIC) is above 64 µg/mL in [1]; 1 µg/mL (≈ 2.49 µM) in assay [3]; above 64 µg/mL in assay [6]; 1 µg/mL (≈ 2.49 µM) in assay [8]; 1 µg/mL (≈ 2.49 µM) in assay [9]; above 64 µg/mL in assay [10]. Besides, the MIC in [11] and in [12] was 1 µg/mL (≈ 2.49 µM) each time.
